Data reported in US11123334B2 (priority 2018, dated 2021).

How the values were obtained:
rhesus monkeys [1] = assay: Intravenous drug self-administration (heroin or cocaine), fixed-ratio 30 schedule; type: in vivo; settings: for duration of action on responding for heroin (in words): after a single administration; for responding for cocaine: naltrexone 0.032 mg/kg, MCAM 0.32 mg/kg, cocaine 0.032 mg/kg/infusion; for responding for heroin: session following s.c. pretreatment, heroin 0.0032 mg/kg/infusion
rhesus monkeys [2] = assay: Heroin-induced respiratory depression, head plethysmograph, seated monkeys; settings: for duration in reversing and protecting against heroin-induced respiratory depression: FIG. 2; for antagonism of respiratory-depressant effects of heroin: day after (24 hours after) antagonist administration
μ opioid receptors = molecular target: T1, μ opioid receptors (Mus musculus, UniProt P42866); settings: cited from earlier work
T1 construct: host or cells: live mouse (endogenous receptor)
T1 sequence (P42866 whole entry): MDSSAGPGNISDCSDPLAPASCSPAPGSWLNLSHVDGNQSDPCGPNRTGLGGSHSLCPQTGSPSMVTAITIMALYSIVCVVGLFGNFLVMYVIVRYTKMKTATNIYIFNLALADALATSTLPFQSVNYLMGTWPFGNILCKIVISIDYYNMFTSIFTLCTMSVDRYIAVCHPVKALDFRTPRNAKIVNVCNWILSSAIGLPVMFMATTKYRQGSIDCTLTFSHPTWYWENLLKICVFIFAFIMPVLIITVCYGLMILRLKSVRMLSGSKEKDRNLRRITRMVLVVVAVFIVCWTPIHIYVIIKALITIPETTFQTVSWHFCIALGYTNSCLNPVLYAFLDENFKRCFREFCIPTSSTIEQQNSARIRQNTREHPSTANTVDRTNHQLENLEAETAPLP

SMILES | duration of action on responding for heroin (in words) (rhesus monkeys [1]) | time responding for heroin remained decreased (rhesus monkeys [1]; after a single injection of antagonist) | responding for cocaine (rhesus monkeys [1]) | responding for heroin (rhesus monkeys [1]) | reversal of opioid agonist side effects (respiratory depression) (rhesus monkeys [2]; 0.32 mg/kg subcutaneously, monkeys received heroin 0.1-1.0 mg/kg) | respiratory-depressant effects of heroin after antagonist (rhesus monkeys [2]; 4 days after administration of antagonist) | duration in reversing and protecting against heroin-induced respiratory depression (rhesus monkeys [2]) | antagonism of respiratory-depressant effects of heroin (rhesus monkeys [2]) | antagonism of morphine (μ opioid receptors; 48 hours later) | effect on antinociception of 1000 mg/kg morphine (μ opioid receptors; one hour after administration) | decrease of respiration by heroin (rhesus monkeys [2]; monkeys breathing air, largest heroin dose tested, s.c.) | duration of action on responding for heroin (in words) (rhesus monkeys [1]; listed as Naltrexone)
Cc1ccc(/C=C/C(=O)N[C@@]23CCC(=O)[C@@H]4Oc5c(O)ccc6c5[C@@]42CCN(CC2CC2)[C@@H]3C6)cc1 [MCAM, methocinnamox] | more than one week | up to 8 days | did not affect responding for cocaine | decreased responding for heroin | reversed | not affected | long duration | continued to antagonize | marked antagonism of morphine | prevented any antinociceptive effect |  | 
CC(=O)Oc1ccc2c3c1O[C@H]1[C@@H](OC(C)=O)C=C[C@H]4[C@@H](C2)N(C)CC[C@@]341 [heroin, reference compound] |  |  |  |  |  |  |  |  |  |  | ≤ 70 % of control | 
C=CCN1CC[C@]23c4c5ccc(O)c4O[C@H]2C(=O)CC[C@@]3(O)[C@H]1C5 [naloxone, reference compound] |  |  |  |  |  |  | short duration |  |  |  |  | 
O=C1CC[C@@]2(O)[C@H]3Cc4ccc(O)c5c4[C@@]2(CCN3CC2CC2)[C@H]1O5 [naltrexone, reference compound] | less than one day |  | did not affect responding for cocaine | decreased responding for heroin |  |  |  | no longer effective |  |  |  | returning to baseline levels the next day
